# “Also recorded” adds a separate entry of the source. Peptide text beside a SMILES is read from it. * marks the point of attachment. Cbz = O=C(OCc1ccccc1)*
# What was measured:
# [1] = test system: ZFP91; experiment: ZFP91 protein level in HCC cells Focus and JHH4 (western blot / proteomic preparation); format: cell-based; details: for effect on ZFP91 degradation induced by Compound A: 10 μM for 1 hour, then 5 μM Compound A for 6 hours, FIG. 5A; for level of ZFP91 protein: control plate and proteomic preparation, beta-actin control
# Description: (§1) Both HCC cells, Focus and JHH4 in 3D setting, were cultured continuously for 15 days treated with either DMSO or Compound A, or were first cultured for about 7 days prior to treatment with either DMSO or Compound A for 24 hours or 72 hours. Cells were harvested and proteins were prepared from the cells for proteomics analysis. The growth of the cells on control plates was also analyzed. In particular, cells were plated in media containing either DMSO or Compound A. Cells were cultured for certain time, and then were harvested onto filter plates. After the plates have dried, scintillation fluid was added to the plates and read on a Top-count reader.
# Focus cells were cultured for 18 days either continuously for 18 days in the medium containing DMSO, Compound A, or Compound B, or cultured for 7 days prior to treating with DMSO, Compound A, or Compound B for 11 days. Then cells were harvested and were treated in 200 μl cold cell lysis buffer (1% Triton X-100 from Cell Signaling supplemented with protease inhibitors and phophatase inhibitors from Roche) to generate cell lysate. Proteins from cell lysate were separated by 4-12% nupage gels (Invitrogen) and transferred to nitrocellulose membranes. Immunoblots were then probed with antibodies recognizing CRBN, ZFP91 (LSBio) and β-actin (Li-Cor). Signals were detected with a Li-Cor Odyssey Imager. As shown, the level of ZFP91 reduced in response to treatment with Compound A or Compound B.
# (§2) HCC cells from both Focus and JHH4 cell lines in 2D setting treated with Compound A for 6 hours, 24 hours, and 72 hours, and JHH4 cells in 3D setting treated with Compound A for 15 days were also analyzed by western blot. Cells were harvested and were treated in 200 μl cold cell lysis buffer (1% Triton X-100 from Cell Signaling supplemented with protease inhibitors and phophatase inhibitors from Roche) to generate cell lysate. Proteins from cell lysate were separated by 4-12% Nupage gels (Invitrogen) and transferred to nitrocellulose membranes. Immunoblots were then probed with antibodies recognizing CRBN, ZFP91 (LSBio), P-TBK1, and β-actin (Li-Cor). Signals were detected with a Li-Cor Odyssey Imager. As shown, the level of ZFP91 reduced in response to treatment with Compound A for 6 hours, 24 hours, or 72 hours in both cell lines in 2D setting. […] The level of CRBN increased in response to treatment with Compound A for 6 hours, 24 hours, or 72 hours in both cell lines in 2D setting. […] ZFP91 degradation induced by various doses of Compound A for various time periods was also tested in both Focus and JHH4 cells, as shown in FIG. 4C.
# HCC cells from both Focus and JHH4 cell lines in 2D setting were first treated with 10 μM MG132 or MLN4924 for 1 hour, and then were treated with 5 μM DMSO or 5 μM Compound A for 6 hours. Cells were harvested and were treated in cell lysis buffer to generate cell lysate. Proteins from cell lysate were separated by gel electrophoresis and transferred to nitrocellulose membranes. Immunoblots were then probed with antibodies recognizing CRBN, ZFP91 (LSBio), and β-actin (Li-Cor). The results were shown in FIG. 5A, and as shown, both 10 μM MG132 or MLN4924 inhibited ZFP91 degradation. MG132 activates c-Jun N-terminal kinase (JNK1), which initiates apoptosis. […] MLN4924 is a NAE1 inhibitor that blocks the activity of Cullin Ring Ligases (CRLs), such as CRL4CRBN.
# [2] = test system: ZFP91; experiment: ZFP91 protein level in Hep3B cells (western blot); format: cell-based, human; details: for ZFP91 level (western blot): FIG. 6A upper panel; for effect on reduction of ZFP91 level in response to Compound A or Compound B: FIG. 6A lower panel
# Description: The change of ZFP91 level in response to Compound A or Compound B treatments was also evaluated in human hepatoma Hep3B cell lines. Hep3B cells were treated with Compound A or Compound B, and cells were harvested and treated in lysis buffer to generate cell lysate. Proteins from cell lysate were separated by electrophoresis gel and transferred to nitrocellulose membranes. Immunoblots were then probed with antibodies recognizing CRBN, ZFP91, and β-actin. Signals were detected with a Li-Cor Odyssey Imager. The results were shown in the upper panel of FIG. 6A. […] Thus, ZFP91 may be degraded in response treatment compounds regardless of growth response of the cells to the treatment compounds.
# [3] = test system: Hep3B cells; experiment: Growth response of Hep3B cells to treatment compounds; format: cell-based, human; details: FIG. 6B
# [4] = test system: ZFP91; experiment: ZFP91 protein level in HCC cells Focus and JHH4 (western blot / proteomic preparation); format: cell-based; details: for level of ZFP91 in cells treated with cycloheximide (CHX): 100 ug/ml CHX, FIG. 5B; for effect of compound on ZFP91 degradation after knocking down of CRBN: FIG. 5C
# [5] = test system: ZFP91; experiment: ZFP91 protein level in glioblastoma cell lines U87 and SNB19 (western blot); format: cell-based, human; details: FIG. 7A
# Description: The change of ZFP91 level in response to treatment compounds was evaluated in other solid tumor cell lines, e.g., giloblastoma (GBM) cell lines. […] Proteins from cell lysate were separated by electrophoresis gel and transferred to nitrocellulose membranes. Immunoblots were then probed with antibodies recognizing ZFP91 and β-actin. Signals were detected with a Li-Cor Odyssey Imager.
# [6] = test system: HCC cell lines (excised xenograft tumors of HAK-1AJ and Focus); experiment: Proteomic screening (TMT) of HCC cell lines after Compound A treatment; format: cell-based
# Description: HCC cell lines (excised xenograft tumors of HAK-1AJ and Focus) were treated with either with DMSO, or Compound A for either once (single) or multiple times. Cells were harvested at 24 or 72 hours time points, and proteins were fractionated using a basic pH reverse gradient method. Fractionated samples were labeled using a Tandem Mass Tag (TMT) method. Relative abundance was calculated.
# [7] = test system: Focus cells; experiment: Colony growth on control plates, 3D culture; format: cell-based; details: FIG. 2B
# Description: as §1
# [8] = test system: JHH4 cells; experiment: Colony growth on control plates, 3D culture; format: cell-based; details: JHH4, 3D, FIG. 3B
# [9] = test system: CRBN; experiment: CRBN protein level in HCC cells Focus and JHH4 (western blot / proteomic preparation); format: cell-based; details: for level of CRBN (western blot): FIG. 4B; for level of CRBN protein: control plate and proteomic preparation
# Description: as §2, with “Both HCC cells, Focus and JHH4 in 3D setting, were cultured continuously for 15 days treated with either DMSO or Compound A, or were first cultured for about 7 days prior to treatment with either DMSO or Compound A for 24 hours or 72 hours. Cells were harvested and proteins were prepared from the cells for proteomics analysis. The growth of the cells on control plates was also analyzed. In particular, cells were plated in media containing either DMSO or Compound A. Cells were cultured for certain time, and then were harvested onto filter plates. After the plates have dried, scintillation fluid was added to the plates and read on a Top-count reader. HCC” for “HCC”
# [10] = test system: P-TBK1; experiment: P-TBK1 level by western blot in HCC cells; format: cell-based; details: 3D setting; Compound A treatment
# Description: as §2
# [11] = test system: U87 tumor; experiment: U87 xenograft tumor growth; format: in vivo; details: FIG. 7B left panel
# [12] = test system: ZFP91; experiment: Immunostaining of ZFP91 in U87 xenograft tissue; format: in vivo; details: FIG. 7B right panel
# [13] = test system: NF-κB activation; details: read-out: IC50 of inhibition of NF-κB activation; cited from earlier work
# [14] = Focus cells, 18 days continuous or 7 days culture then 11 days treatment, FIG. 4A
# [15] = proteomic screening vs DMSO, harvested at 24 or 72 hours
smiles,measurement,setting,value
"O=C1CCC(N2Cc3c(OCc4ccc(CN5CCOCC5)cc4)cccc3C2=O)C(=O)N1 (centres unmarked) [Compound B, 3-[4-(4-Morpholin-4-ylmethyl-benzyloxy)-1-oxo-1,3-dihydro-isoindol-2-yl]-piperidine-2,6-dione]",level of ZFP91 (western blot),[1]; [14],reduced
same,ZFP91 level (western blot),[2],down-regulated
same,sensitivity of Hep3B cells (growth response),[3],sensitive
same,effect of compound on ZFP91 protein level after knocking down of CRBN,"[4]; CRBN knock-down, cell line not stated, FIG. 5D",reversed
"NS(=O)(=O)OC[C@@H]1C[C@@H](n2ccc3c(N[C@H]4CCc5ccccc54)ncnc32)C[C@@H]1O [MLN4924, reference compound]",effect on ZFP91 degradation induced by Compound A,"[1]; Focus, 2D",inhibited
same,effect on ZFP91 degradation induced by Compound A,"[1]; Focus, 2D, listed as MLN",block
same,effect on ZFP91 degradation induced by Compound A,"[1]; JHH4, 2D",inhibited
same,effect on reduction of ZFP91 level in response to Compound A or Compound B,[2],blocked
same,effect on reduction of ZFP91 level in response to treatment compounds,[5]; SNB19 cells,blocked
same,effect on reduction of ZFP91 level in response to treatment compounds,[5]; U87 cells,blocked
same,effect on ZFP91 degradation induced by Compound A,"[4]; JHH4, 2D, 10 μM for 1 hour, then 5 μM Compound A for 6 hours, FIG. 5A, listed as MLN",block
"Cc1nc2cccc(N)c2c(=O)n1C1CCC(=O)NC1=O (centres unmarked) [Compound A, 3-(5-amino-2-methyl-4-oxo-4H-quinazolin-3-yl)-piperidine-2,6-dione]",proteins commonly differentially abundant in both Focus and HAK-1AJ cell lines,"[6]; 24 hours after treatment, FIG. 1C","WIBG, KAT1, Nestin, PARP4, and MVP"
same,proteins downregulated in response to Compound A treatment,[6]; [15],"MVP, PARP4, ZFP91, and ZNF198"
same,proteins upregulated in response to Compound A treatment,[6]; [15],"Nestin, KAT1/CCBL1, and WIBG"
same,colony number,[7],reduced
same,total colony area,[7],reduced
same,colony number,[8],reduced
same,total colony area,[8],reduced
same,level of ZFP91 (western blot),[1]; [14],reduced
same,level of ZFP91 (western blot),"[1]; Focus, 2D setting, 6 hours, 24 hours, or 72 hours, FIG. 4B",reduced
same,level of ZFP91 protein,"[1]; Focus, 3D, FIG. 2A",reduced
same,level of ZFP91 (western blot),"[1]; JHH4, 2D setting, 6 hours, 24 hours, or 72 hours, FIG. 4B",reduced
same,level of ZFP91 (western blot),"[1]; JHH4, 3D setting, 15 days, FIG. 4B",reduced
same,level of ZFP91 protein,"[1]; JHH4, 3D, FIG. 3A",reduced
same,level of CRBN (western blot),"[9]; Focus, 2D setting, 6 hours, 24 hours, or 72 hours",increased
same,level of CRBN protein,"[9]; Focus, 3D, FIG. 2A",increased
same,level of CRBN (western blot),"[9]; JHH4, 2D setting, 6 hours, 24 hours, or 72 hours",increased
same,level of CRBN (western blot),"[9]; JHH4, 3D setting, 15 days",increased
same,level of CRBN protein,"[9]; JHH4, 3D, FIG. 3A",increased
same,P-TBK1 level (western blot),[10],upregulated
same,ZFP91 level (western blot),[2],down-regulated
same,sensitivity of Hep3B cells (growth response),[3],not
same,ZFP91 level (western blot),[5]; SNB19 cells,down-regulated
same,ZFP91 level (western blot),[5]; U87 cells,down-regulated
same,U87 tumor growth,[11]; 3 mg/kg qd,significantly inhibits
same,U87 tumor growth,[11]; 30 mg/kg qd,significantly inhibits
same,ZFP91 in U87 xenograft tissue (immunostaining),[12],degraded
same,level of ZFP91 in cells treated with cycloheximide (CHX),[4]; Focus,decreased
same,effect of compound on ZFP91 degradation after knocking down of CRBN,"[4]; Focus, CRBN knock-down",reversed
same,level of ZFP91 in cells treated with cycloheximide (CHX),[4]; JHH4,decreased
same,effect of compound on ZFP91 degradation after knocking down of CRBN,"[4]; JHH4, CRBN knock-down",reversed
"CC(C)C[C@@H](C=O)NC(=O)[C@H](CC(C)C)NC(=O)[C@H](CC(C)C)NC(=O)OCc1ccccc1 [MG132, reference compound] (Cbz-Leu-Leu-Leu-aldehyde)",effect on ZFP91 degradation induced by Compound A,"[1]; Focus, 2D",block; also recorded: inhibited
same,effect on ZFP91 degradation induced by Compound A,"[1]; JHH4, 2D",block; also recorded: inhibited
same,effect on reduction of ZFP91 level in response to Compound A or Compound B,[2],blocked
same,effect on reduction of ZFP91 level in response to treatment compounds,[5]; SNB19 cells,blocked
same,effect on reduction of ZFP91 level in response to treatment compounds,[5]; U87 cells,blocked
same,IC50,[13],3000 nM
